Assay results from ChEMBL document CHEMBL1141775, “Friedolanostanes and lanostanes from the leaves of Garcinia hombroniana” (2005).

Tested on: Staphylococcus aureus
Assay: Antibacterial activity against methicillin-resistant Staphylococcus aureus
Type: functional

Row | SMILES | MIC [µg/mL]
1 | C[C@H](CC(=O)C[C@@H](C)C1=CC[C@@]2(C)[C@@H]3CC[C@H]4C(C)(C)[C@H](O)CC[C@]4(C)C3=CC[C@]12C)C(=O)O [GARCIHOMBRONANES E] | > 128
2 | COC(=O)/C(C)=C/[C@H](O)C[C@@H](C)[C@]1(C)CC=C2C3=C(CC[C@]21C)[C@@]1(C)CC[C@@H](O)C(C)(C)[C@@H]1CC3 [GARCIHOMBRONANES C] | > 128
3 | COC(=O)[C@H](C)CC(=O)C[C@@H](C)C1=CC[C@@]2(C)[C@@H]3CC[C@H]4C(C)(C)[C@@H](O)CC[C@]4(C)C3=CC[C@]12C | > 128
4 | C[C@H](CC(=O)C[C@@H](C)C1=CC[C@@]2(C)[C@@H]3CC[C@H]4C(C)(C)[C@@H](O)CC[C@]4(C)C3=CC[C@]12C)C(=O)O [GARCIHOMBRONANES D] | > 128
5 | C/C(=C\C=C/[C@@H](C)[C@]1(C)CC[C@]2(C)C1=CC[C@@]1(O)[C@H]2CC[C@H]2C(C)(C)[C@H](O)CC[C@@]21C)C(=O)O [GARCIHOMBRONANE G] | > 128
6 | CC(C)=C/C=C\[C@@H](C)[C@]1(C)CC=C2[C@@H]3CC[C@H]4C(C)(C)[C@H](O)CC[C@]4(C)[C@@]3(O)CC[C@]21C [GARCIHOMBRONANE F] | > 128
7 | C/C(=C\CC[C@@H](C)[C@]1(C)CC[C@]2(C)C1=CC[C@@]1(O)[C@H]2CC[C@H]2C(C)(C)[C@H](O)CC[C@@]21C)C(=O)O [GARCIHOMBRONANE H] | > 128
8 | COC(=O)[C@H](C)CC(=O)C[C@@H](C)C1=CC[C@@]2(C)[C@@H]3CC[C@H]4C(C)(C)[C@H](O)CC[C@]4(C)C3=CC[C@]12C [GARCIHOMBRONANE J] | > 128
9 | COC(=O)/C(C)=C/[C@H](O)C[C@@H](C)[C@]1(C)CC=C2[C@@H]3CC[C@H]4C(C)(C)[C@H](O)CC[C@]4(C)[C@@]3(O)CC[C@]21C [GARCIHOMBRONANE B] | > 128
10 | C/C(=C\CC[C@@H](C)[C@]1(C)CC[C@]2(C)C1=CC[C@@]1(O)[C@H]2CC[C@H]2C(C)(C)[C@@H](O)CC[C@@]21C)C(=O)O [GARCIHOMBRONANE I] | > 128
